# Experimental data published in PMC9909315, “SY-707, an ALK/FAK/IGF1R inhibitor, suppresses growth and metastasis of breast cancer cells” (Acta Biochimica et Biophysica Sinica, 2022).
# Experiments:
# [1] = tested on: phosphorylation of Pyk2 at Tyr402; assay: Western blot of Pyk2 phosphorylation in T47D cells; type: cell-based; conditions: 1 h treatment
# Method: Equal amounts of cell lysates were loaded onto 10% SDS-PAGE gel and separated by electrophoresis. Separated proteins were then electro-transferred onto polyvinylidene fluoride (PVDF) membranes (Millipore, Bedford, USA). After being blocked with Tris-buffered saline containing 0.1% Tween-20 (TBST) and 5% bovine serum albumin (BSA), the membranes were incubated with primary antibodies at room temperature for 2 hours or at 4°C, then washed with TBST, followed by treatment with horseradish peroxidase (HRP)-conjugated goat anti-rabbit IgG secondary antibody at room temperature for another 1 h. The targeted protein bands were visualized using an enhanced chemiluminescence (ECL) plus system (Thermo Fisher Scientific). […]
# Figure4 Inhibitory effects of SY-707 on the phosphorylation of FAK(A,B) Concentration-dependent inhibition of SY-707 on phosphorylation of FAK in T47D (A) and MCF-7 (B) cells. […] Cell lysates were analyzed by western blot analysis using specific antibodies against p-FAK, p-Pyk2, p-AKT and p-ERK respectively. […] Cell lysates were analyzed by western blot analysis using specific antibodies against p-IGF1R, p-STAT3, p-AKT and p-ERK respectively.
# [2] = tested on: A549; assay: Cell proliferation assay (CellTiter-Glo/CellTiter-Blue); type: cell-based; conditions: Homo sapiens, A549, 72 h, read-out: IC50 anti-proliferation
# Method: (§1) MCF-7, T47D, MDA-MB-231, MIA Paca-2, PANC-1, SW620, HT-29, U87MG, and A549 cell lines were purchased from the Cell Bank of Chinese Academy of Science (Shanghai, China). Cells were cultured in DMEM or RPMI-1640 (Gibco, BRL, USA) supplemented with 10% FBS (HyClone, Logan, USA) and 50 IU penicillin/streptomycin in a humidified atmosphere with 5% CO 2 at 37°C. The effects of SY-707 on cell proliferation were measured using CellTiter-Glo ® or CellTiter-Blue ® Cell Viability Assay kits (Promega, Beijing, China). In brief, cells were seeded in 96-well plates at low destiny with 195 μL of medium per well. The stock solutions of compounds were 3-fold serially diluted with DMSO from 10 mM to 0.3 nM, and 4 μL of solution at each concentration was mixed with 96 μL of serum free medium, then 5 μL of the resulted solution was added to each well. After treatment for 72 h, 25 μL of CellTiter-Glo ® reagent (for adherent cells) or 35 μL CellTiter-Blue ® reagent (for suspension cells) was added to each well, and the resulted mixture was further incubated at room temperature for 10 min or 4 h. The luminescence signals were measured using EnVision ® multilabel plate reader (PerkinElmer), and the fluorescent signals were examined using FlexStation 3 (Molecular Devices, Sunnyvale, USA), and the IC 50 values were calculated using Prism ® software (Version 5.0) and presented as the average of three independent experiments performed in duplicate.
# [3] = tested on: PANC-1; assay: as above; type: cell-based; conditions: Homo sapiens, PANC-1, 72 h, read-out: IC50 anti-proliferation
# Method: as §1
# [4] = tested on: MDA-MB-231; assay: as above; type: cell-based; conditions: Homo sapiens, MDA-MB-231, 72 h, read-out: IC50 anti-proliferation
# Method: as §1
# [5] = tested on: U87MG; assay: as above; type: cell-based; conditions: Homo sapiens, U-87 MG, 72 h, read-out: IC50 anti-proliferation
# Method: as §1
# [6] = tested on: MCF-7; assay: as above; type: cell-based; conditions: Homo sapiens, MCF7, 72 h, read-out: IC50 anti-proliferation
# Method: as §1
# [7] = tested on: HT29; assay: as above; type: cell-based; conditions: Homo sapiens, HT-29, 72 h, read-out: IC50 anti-proliferation
# Method: as §1
# [8] = tested on: MIA PACA-2; assay: as above; type: cell-based; conditions: Homo sapiens, MIA PaCa-2, 72 h, read-out: IC50 anti-proliferation
# Method: as §1
# [9] = tested on: SW620; assay: as above; type: cell-based; conditions: Homo sapiens, SW-620, 72 h, read-out: IC50 anti-proliferation
# Method: as §1
# [10] = target: FAK, Pyk2, LTK, IRK and IGF1R; assay: HTRF kinase enzyme assay, summary over several kinases; type: biochemical; conditions: around; span over the named kinases
# Method: Homogeneous time-resolved fluorescence (HTRF) assay was performed to analyze kinase enzyme activity and compound potency using HTRF ® KinEASE ^TM-TK kit (Cisbio Bioassays, Shanghai, China). Compound SY-707 was serially diluted by 3 folds from 1 mM stock solution in DMSO, and 4 μL of the diluted solution of the compounds was added to 96 μL of reaction buffer (50 mM HEPES, pH 7.0, 0.1 mM Na 3VO 4, 0.01% BAS, 5 mM MgCl 2, 1 mM DTT), then 2.5 μL of 4× compound solution and 5 μL of 2× kinases solution were added to a 384-well plate (OptiPlate-384; PerkinElmer, Wellesley, USA ). The resulted solutions were briefly mixed, centrifuged and incubated for 5 min. Finally, 2.5 μL of 4× ATP/TK peptide (ATP at K m for each kinase) solution was added to the reaction system to initiate the reaction. The enzymatic reaction was carried out for 60-120 min at 23°C, then terminated by addition of 5 μL of detection solution containing TK antibody-cryptate and 5 μL of Streptravidin-XL-665. The mixture was incubated for additional 1 h at 23°C. The fluorescent signals were measured with an EnVision multilabel plate reader (PerkinElmer). IC 50 values of the compounds were calculated using the GraFit software (Version 6.0) and presented as the mean of three independent experiments performed in duplicate.
# [11] = tested on: phosphorylation of FAK at Tyr397; assay: Western blot of FAK phosphorylation in MCF-7 cells; type: cell-based; conditions: MCF-7, 1 h treatment
# Method: Equal amounts of cell lysates were loaded onto 10% SDS-PAGE gel and separated by electrophoresis. Separated proteins were then electro-transferred onto polyvinylidene fluoride (PVDF) membranes (Millipore, Bedford, USA). After being blocked with Tris-buffered saline containing 0.1% Tween-20 (TBST) and 5% bovine serum albumin (BSA), the membranes were incubated with primary antibodies at room temperature for 2 hours or at 4°C, then washed with TBST, followed by treatment with horseradish peroxidase (HRP)-conjugated goat anti-rabbit IgG secondary antibody at room temperature for another 1 h. The targeted protein bands were visualized using an enhanced chemiluminescence (ECL) plus system (Thermo Fisher Scientific). Primary antibodies against phospho-FAK (3283, 1:1000 dilution), phospho-ERK (4377, 1:2000 dilution), phospho-AKT (4060, 1:2000 dilution), FAK (3285, 1:1000 dilution), AKT (6703, 1:1000 dilution) and β-Actin (5125, 1:10,0000 dilution) were purchased from Cell Signaling Technology (Beverly, USA) and the HRP-conjugated goat anti-rabbit IgG (ZDR-5306, 1:10,000 dilution) was purchased from Jackson (West Grove, USA ).
# Cells were cultured in 6-well plates and treated with the indicated concentrations of SY-707 for 1 h before stimulation with or without 100 ng/mL IGF1 for 10 min. Control cells received the drug vehicle with 0.1% DMSO. […]
smiles,measurement,setting,value
"COc1cc(N2CCC(N3CCN(C)CC3)CC2)ccc1Nc1nc2c(c(Nc3ccccc3S(=O)(=O)NC(C)C)n1)CCN2 [SY-707, N-isopropyl-2-((2-((2-methoxy-4-(4-(4-methylpiperazin-1-yl)piperidin-1-yl)phenyl)amino)-6,7-dihydro-5H-pyrrolo[2,3-d]pyrimidin-4-yl)amino)benzenesulfonamide]",phosphorylation of Pyk2 at Tyr402,[1],dose-dependently suppressed
same,IC50,[2],5700 nM
same,IC50,[3],1200 nM
same,IC50,[4],1900 nM
same,IC50,[5],> 10000 nM
same,IC50,[6],590 nM
same,IC50,[7],600 nM
same,IC50,[8],1300 nM
same,IC50,[9],810 nM
same,IC50,[10],1 to 10 nM
same,phosphorylation of FAK at Tyr397,[11],dose-dependently suppressed
